Data from patent US20260000656A1, “ANTIFUNGAL AGENTS WITH ENHANCED ACTIVITY IN ACIDIC PH” (Scynexis, Inc., priority 2017, published 2026).
Like-named read-outs stand apart in the source and are kept apart here.

Legend:
[1] = test system: acute VVC (Candida spp. vaginal infection); test: clinical; assay type: in vivo, human; settings: for mycological eradication / percentage of patients showing an S&S score of 0 or 1 / mean S&S score / percentage of patients with 0-or-1 S&S score / percentage of patients with clinical cure: SCY-078 600 mg dose arm / fluconazole arm; for mean S&S score: scale 0 to 18; for clinical cure / clinical cure, number of patients: Day 10 Test-of-Cure, mITT, SCY-078 600 mg (300 mg BID 1 day, n=27) / fluconazole 150 mg (n=24); for percentage of patients with 0-or-1 S&S score / percentage of patients with clinical cure: Day 25 Follow-Up visit; for patients who received rescue antifungal medication: through Day 25 Follow-Up, SCY-078 600 mg (n=27) / fluconazole (n=24)
Experimental: (§1) A Phase 2 study was conducted to evaluate the safety, efficacy, tolerability, and pharmacokinetics of five dose regimens of oral SCY-078 (administered as the citrate salt) compared to oral fluconazole in adult, female patients with moderate-to-severe acute VVC (defined as having a signs and symptoms (S&S) score of 7 or greater). A total of 186 intent-to-treat (ITT) patients were randomized into six different treatment arms as follows: five different dosing regimens of oral SCY-078 and one oral fluconazole treatment arm. The modified intent-to-treat (mITT) population was used for efficacy analysis and included 153 patients with culture-confirmed Candida spp. vaginal infection (positive microscopic examination of vaginal secretions showing yeast, vaginal pH≤4.5) at baseline. The doses of SCY-078 tested ranged from 600 mg to 1800 mg total dose administered over the duration of treatment, and the durations of treatment were 1 or 3 days:
(§2) The primary efficacy endpoint was clinical cure, which according to current FDA guidance is defined as complete resolution (score=0) of all signs and symptoms at the Day 10 Test-of-Cure visit without the need of additional antifungal therapy. Secondary endpoints included mycological eradication (negative culture) and a composite endpoint including both clinical cure and mycological eradication. Response was also evaluated based on the percent of patients achieving a noticeable improvement in their signs and symptoms, either by achieving an S&S score of 0 or 1 or an absolute change (reduction) in mean composite S&S score from baseline. An S&S score is based on a patient's reported symptoms (burning, itching, and irritation) and investigator-assessed signs (swelling, redness, and excoriations); each sign and symptom can be absent, mild, moderate, or severe, with a corresponding score from 0 to 3; the total composite scale is 0 to 18 points. Response was further evaluated by assessing the number of patients who received rescue antifungal therapy. Patients were assessed at the Day 10 Test-of-Cure visit and also at a Day 25 Follow-Up visit. The study was not designed to achieve statistically significant differences in any of the evaluated endpoints.

VVC = settings: oral fluconazole, share of VVC cases, Diflucan label (May 2011); cited from earlier work
[2] = test system: vulvovaginal candidiasis (Candida spp.); assay type: in vivo, human; settings: for rate of mycological eradication: SCY-078 combined arms / fluconazole arm; for Therapeutic cure (clinical cure and mycological eradication) / mycological eradication / clinical cure: ITT population; for Therapeutic cure (clinical cure and mycological eradication): Day 24 Test-of-Cure visit; for Therapeutic cure (clinical cure and mycological eradication) / mycological eradication: combined SCY-078 arms (n = 64) / fluconazole 150 mg (n = 32); for mycological eradication / clinical cure: Test-of-Cure visit (Day 24); for clinical cure: combined SCY-078 arms (n = 64, 1250 mg then 750 mg QD for 2 or 4 days) / fluconazole 150 mg single dose (n = 32)
Experimental: As a first step of the feasibility evaluation, a proof-of-concept exploratory trial in 96 patients with moderate to severe acute VVC was conducted. Subjects received SCY-078 tablets orally, administered at a dose of 1250 mg on day 1, followed by 750 mg once a day for 2 or 4 days. A comparator group of patients receiving oral fluconazole at the approved dose (150 mg, single dose) was also included.
This study was a proof-of-concept study conducted to evaluate the safety and efficacy of two dosing regimens of oral SCY-078 (administered as the phosphate salt) in subjects presenting with moderate to severe VVC.
Key criteria for inclusion included: • 1. Subjects with moderate to severe VVC, confirmed by positive potassium hydroxide (KOH) test from a vaginal secretion sample • 2. Three vaginitis episodes in the past year that were either confirmed to be caused by Candida spp. or that responded to antifungal therapy
Subjects were randomized in a 1:1:1 ratio to one of the three treatment arms: Oral SCY-078 loading dose of 1250 mg SCY-078, followed by 750 mg SCY-078 QD for 2 days or for 4 days, or Oral Fluconazole 150 mg for 1 day.
Subjects were evaluated on Day 24 (Test-of-Cure visit), Day 60, Day 90, and 120 days (end of study).
The analyses included clinical cure (all signs and symptoms present at baseline improved by at least two points (e.g., from moderate to absent or from severe to mild); after the study started, the FDA proposed that clinical cure is achieved if all signs and symptoms present at baseline are absent), mycological eradication (a negative culture for the baseline yeast pathogen), and therapeutic cure (both clinical cure and mycological eradication). Clinical cure has been proposed by the FDA as the primary endpoint for assessment of efficacy in VVC.
Ninety-six subjects were enrolled (intent-to-treat (ITT) population), and 70 subjects had cultured-confirmed Candida spp. infection (per protocol (PP) population).

clinical = assay type: in vivo, human; settings: female, human, in vivo, po, 300 mg
Experimental: as §1, §2

[3] = Day 24, per protocol population, SCY-078 Combined (n = 50) / Fluconazole (n = 20)
[4] = Month 4, SCY-078 Combined (n = 50) / Fluconazole (n = 20)
[5] = Day 24, per protocol population
[6] = Day 24, per protocol population, SCY-078 3-Days arm (n = 24)
[7] = Day 24, per protocol population, SCY-078 5-Days arm (n = 26)
[8] = Month 4, SCY-078 3-Days arm (n = 24)
[9] = Month 4, SCY-078 5-Days arm (n = 26)

SMILES | mycological eradication ([1]; Day 10, mITT) [%] | percentage of patients showing an S&S score of 0 or 1 ([1]; Day 10, mITT) [%] | mean S&S score ([1]; Day 10, mITT) | clinical cure [1] [%] | clinical cure, number of patients [1] | mycological eradication ([1]; Day 25) [%] | mean S&S score ([1]; Day 25) | percentage of patients with 0-or-1 S&S score [1] [%] | percentage of patients with clinical cure [1] [%] | patients who received rescue antifungal medication [1] [%] | Clinical Cure (Updated FDA Definition), rate [2, 3] [%] | Clinical Cure, rate [2, 3] [%] | rate of mycological eradication ([2]; Day 24) [%] | Therapeutic cure (clinical cure and mycological eradication) [2] [%] | mycological eradication [2] [%] | clinical cure [2] [%] | Clinical Cure, rate [2, 4] [%] | Recurrences Requiring Antifungal Therapy, rate [2, 4] [%] | “0” Signs and Symptoms, rate [2, 4] [%] | rate of mycological eradication ([2]; Month 4) [%] | further results
OC(Cn1cncn1)(Cn1cncn1)c1ccc(F)cc1F [Fluconazole, reference compound] | 63 | 71 | 1.8 | 58 | 14 | 38 | 2.6 | 58 | 50 | 29 | 55 | 65 | 65 | 56.3 | 68.8 | 65.6 | 65 | 15 | 65 | 60 | therapeutic cure (complete resolution of signs and symptoms, negative KOH examination and negative culture) (VVC): approximately half; Therapeutic cure (clinical cure and mycological eradication) ([2]; listed as fluconazole): 56.3%
CC(C)[C@@H](C)[C@@]1(C)CC[C@]2(C)[C@H]3CC[C@@H]4[C@@]5(COC[C@]4(C)[C@@H](OC[C@](C)(N)C(C)(C)C)[C@H](n4ncnc4-c4ccncc4)C5)C3=CC[C@@]2(C)[C@@H]1C(=O)O [SCY-078] | 63 | 70 | 1.0 | 52 | 14 | 48 | 0.4 | 81 | 70 | 4 | 70 | 76 | 70 | 56.3 | 70.3 | 78.1 | 88 | 4 | 80 | 74 | AUC(0-t) (clinical): 3 to 8 µM·h; Cmax (clinical): 200 to 500 nM; % Δ SCY-078 (combined) vs. Fluconazole, Clinical Cure [2, 5]: 11%; % Δ SCY-078 (combined) vs. Fluconazole, Clinical Cure (Updated FDA Definition) [2, 5]: 15%; Clinical Cure (Updated FDA Definition), rate [2, 6]: 70.8%; Clinical Cure, rate [2, 6]: 79.2%; Clinical Cure (Updated FDA Definition), rate [2, 7]: 69.2%; Clinical Cure, rate [2, 7]: 73.1%; % Δ SCY-078 (combined) vs. Fluconazole, Clinical Cure ([2]; Month 4): 23%; % Δ SCY-078 (combined) vs. Fluconazole, Recurrences Requiring Antifungal Therapy ([2]; Month 4): −11%; % Δ SCY-078 (combined) vs. Fluconazole, “0” Signs and Symptoms ([2]; Month 4): 15%; Clinical Cure, rate [2, 8]: 87.5%; Recurrences Requiring Antifungal Therapy, rate [2, 8]: 4.2%; “0” Signs and Symptoms, rate [2, 8]: 79.1%; Clinical Cure, rate [2, 9]: 88.46%; Recurrences Requiring Antifungal Therapy, rate [2, 9]: 3.8%; “0” Signs and Symptoms, rate [2, 9]: 80.7%; GI adverse events (e.g., nausea, diarrhea) ([2]; in vivo): higher rate of GI adverse events
